Source: patent publication US11285135B2 (AMGEN INC., priority 2016, dated 2022)
pIC50: −log10 of the molar value. Where two headings read alike, the source gives them in different places.

Legend:
[1] = target: GDP-bound protein (aa 1-169), containing both G12C and C118A amino acid substitutions (Homo sapiens, UniProt P01116, C118A/G12C); experiment: Coupled Nucleotide Exchange Assay (SOS-mediated nucleotide exchange, AlphaScreen); assay type: biochemical; conditions: 2 hours compound pre-incubation
Chain of GDP-bound protein (aa 1-169), containing both G12C and C118A amino acid substitutions (P01116 1-169 isoform P01116-2 G12C/C118A): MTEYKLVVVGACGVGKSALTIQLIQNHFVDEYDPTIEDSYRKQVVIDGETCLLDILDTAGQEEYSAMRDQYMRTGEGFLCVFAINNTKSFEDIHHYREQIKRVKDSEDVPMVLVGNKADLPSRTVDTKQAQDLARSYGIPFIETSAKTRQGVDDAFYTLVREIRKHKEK
Protocol: Coupled Nucleotide Exchange Assay: Purified GDP-bound […] protein (aa 1-169), containing both G12C and C118A amino acid substitutions and an N-terminal His-tag, was pre-incubated with a compound dose-response titration for 2 hours in assay buffer (25 mM HEPES pH 7.4, 10 mM MgCl2, and 0.01% Triton X-100). Following compound pre-incubation, purified SOS protein (aa 564-1049) and GTP (Roche 10106399001) were added to the assay wells and incubated for an additional hour. […] The assay plates were then read on a PerkinElmer EnVision Multilabel Reader, using AlphaScreen® technology, and data were analyzed using a 4-parameter logistic model to calculate IC50 values.

[2] = tested on: Phosphorylation of ERK½ in MIA PaCa-2 cells; experiment: Phospho-ERK½ MSD Assay in MIA PaCa-2 cells; assay type: cell-based; conditions: 4 hours compound treatment, 10 ng/mL EGF for 10 min, read-out: p-ERK IC50 (MIA PaCa-2)
Protocol: (§1) Phospho-ERK½ MSD Assay: MIA PaCa-2 (ATCC® CRL-1420™) and A549 (ATCC® CCL-185™) cells were cultured in RPMI 1640 Medium (ThermoFisher Scientific 11875093) containing 10% fetal bovine serum (ThermoFisher Scientific 16000044) and 1× penicillin-streptomycin-glutamine (ThermoFisher Scientific 10378016). Sixteen hours prior to compound treatment, MIA PaCa-2 or A549 cells were seeded in 96-well cell culture plates at a density of 25,000 cells/well and incubated at 37° C., 5% CO2. A compound dose-response titration was diluted in growth media, added to appropriate wells of a cell culture plate, and then incubated at 37° C., 5% CO2 for 4 hours. Following compound treatment, cells were stimulated with 10 ng/mL EGF (Roche 11376454001) for 10 min, washed with ice-cold Dulbecco's phosphate-buffered saline, no Ca^2+ or Mg^2+ (ThermoFisher Scientific 14190144), and then lysed in RIPA buffer (50 mM Tris-HCl pH 7.5, 1% Igepal, 0.5% sodium deoxycholate, 150 mM NaCl, and 0.5% sodium dodecyl sulfate) containing protease inhibitors (Roche 4693132001) and phosphatase inhibitors (Roche 4906837001). Cell lysates were stored frozen at −80° C. overnight. Phosphorylation of ERK½ in compound-treated lysates was assayed using Phospho-ERK½ Whole Cell Lysate kits (Meso Scale Discovery K151DWD) according to the manufacturer's protocol. Assay plates were read on a Meso Scale Discovery Sector Imager 6000, and data were analyzed using a 4-parameter logistic model to calculate IC50 values.

[3] = tested on: Phosphorylation of ERK½ in A549 cells; experiment: Phospho-ERK½ MSD Assay in A549 cells; assay type: cell-based; conditions: 4 hours compound treatment, 10 ng/mL EGF for 10 min, read-out: p-ERK IC50 (A549)
Protocol: as §1

[4] = Homo sapiens, MIA PaCa-2, MIA PaCa-2 cells

Coupled exchange IC50 [1]	pIC50 [2, 4]	pIC50 ([3]; Homo sapiens, A549, A549 cells)	pIC50 ([2]; MIA PaCa-2 cells)	pIC50 ([3]; A549 cells)	Compound
4.65 µM	4.87	< 4.00	–	–	C=CC(=O)N1CCN(c2snc3c(F)c(-c4cccc5ccccc45)c(Cl)cc23)CC1 [Example 3-23, 1-(4-(5-chloro-7-fluoro-6-(naphthalen-1-yl)benzo[c]isothiazol-3-yl)piperazin-1-yl)prop-2-en-1-one]
0.875 µM	5.54	< 4.00	–	–	C=CC(=O)N(C)C1CN(c2snc3c(F)c(-c4cc(O)cc5ccccc45)c(Cl)cc23)C1 [Example 5-1, N-(1-(5-Chloro-7-fluoro-6-(3-hydroxy-1-naphthalenyl)-2,1-benzothiazol-3-yl)-3-azetidinyl)-N-methyl-2-propenamide]
0.237 µM	5.45	< 4.00	–	–	C=CC(=O)N1CCN(c2nc(=O)n(-c3ccncc3C3CC3)c3cc(-c4c(O)cccc4F)c(Cl)cc23)CC1 [Example 9-6, 6-chloro-1-(3-cyclopropyl-4-pyridinyl)-7-(2-fluoro-6-hydroxyphenyl)-4-(4-(2-propenoyl)-1-piperazinyl)-2(1H)-quinazolinone]
0.760 µM	< 4.00	< 4.00	–	–	C=C(CBr)C(=O)N1CCN(c2snc3c(F)c(-c4cc(O)cc5ccccc45)c(Cl)cc23)CC1 [Example 18-2, 2-(Bromomethyl)-1-(4-(5-chloro-7-fluoro-6-(3-hydroxy-1-naphthalenyl)-2,1-benzothiazol-3-yl)-1-piperazinyl)-2-propen-1-one]
1.32 µM	5.89	< 4.00	–	–	C=CC(=O)N1CCN(c2nc(=O)n(-c3c(CC)cccc3CC)c3nc(-n4nnc5ccccc54)c(Cl)cc23)[C@@H](C)C1 [Example 9-12, 7-(1H-benzotriazol-1-yl)-6-chloro-1-(2,6-diethylphenyl)-4-((2S)-2-methyl-4-(2-propenoyl)-1-piperazinyl)pyrido[2,3-d]pyrimidin-2(1H)-one]
0.400 µM	5.62	< 4.00	–	–	C=CC(=O)N1CCN(c2nc(=O)n(-c3cnccc3C3CC3)c3cc(-c4c(O)cccc4F)c(Cl)cc23)CC1 [Example 8-5, 6-chloro-1-(4-cyclopropyl-3-pyridinyl)-7-(2 fluoro-6-hydroxyphenyl)-4-(4-(2-propenoyl)-1-piperazinyl)-2(1H)-quinazolinone]
0.198 µM	7.64	4.89	–	–	C=CC(=O)N1CCN(c2nc(=O)n(-c3ccccc3C(C)CC)c3cc(-c4cc(O)cc5ccccc45)c(Cl)cc23)CC1 (racemic) [Example 9-4, 1-(2-(2-butanyl)phenyl)-6-chloro-7-(3-hydroxy-1-naphthalenyl)-4-(4-(2-propenoyl)-1-piperazinyl)-2(1H)-quinazolinone]
0.129 µM	6.46	< 4.00	–	–	C=CC(=O)N1CCN(c2nc(=O)n([C@H]3CCCCC3(C)C)c3nc(-c4c(O)cccc4F)c(Cl)cc23)CC1 (racemic) [Example 9-14, 6-chloro-1-((1R)-2,2-dimethylcyclohexyl)-7-(2-fluoro-6-hydroxyphenyl)-4-(4-(2-propenoyl)-1-piperazinyl)pyrido[2,3-d]pyrimidin-2(1H)-one|6-chloro-1-((1S)-2,2-dimethylcyclohexyl)-7-(2-fluoro-6-hydroxyphenyl)-4-(4-(2-propenoyl)-1-piperazinyl)pyrido[2,3-d]pyrimidin-2(1H)-one]
–	7.30	< 4.00	–	–	C=CC(=O)N1CCN(c2nc(=O)n(-c3ccccc3C(C)C)c3nc(-c4c(O)cccc4F)c(Cl)cc23)CC1 [Example 8-2, 6-chloro-7-(2-fluoro-6-hydroxyphenyl)-1-(2-(2-propanyl)phenyl)-4-(4-(2-propenoyl)-1-piperazinyl)pyrido[2,3-d]pyrimidin-2(1H)-one]
5.31 µM	–	–	–	–	C=CC(=O)N1CCN(c2snc3c(F)c(-c4ncccc4Cl)c(Cl)cc23)CC1 [Example 6-2, 1-(4-(5-chloro-6-(3-chloro-2-pyridinyl)-7-fluoro-2,1-benzothiazol-3-yl)-1-piperazinyl)-2-propen-1-one]
20.6 µM	–	–	–	–	COc1cc(-c2c(Cl)cc3c(N4CCN(C(=O)/C=C/CN(C)C)CC4)snc3c2F)c2ccccc2c1 [Example 17-1, (2E)-1-(4-(5-Chloro-7-fluoro-6-(3-methoxy-1-naphthalenyl)-2,1-benzothiazol-3-yl)-1-piperazinyl)-4-(dimethylamino)-2-buten-1-one]

The remaining lines, values behind:

Compound	Coupled exchange IC50 [1]	pIC50 [2, 4]	pIC50 ([3]; Homo sapiens, A549, A549 cells)	pIC50 ([2]; MIA PaCa-2 cells)	pIC50 ([3]; A549 cells)
C=CC(=O)N1CCN(c2snc3c(F)c(-c4cc(O)cc5ccccc45)c(Cl)cc23)C(CO)C1 (racemic) [Example 1-18, 1-(4-(5-chloro-7-fluoro-6-(3-hydroxy-1-naphthalenyl)-2,1-benzothiazol-3-yl)-3-(hydroxymethyl)-1-piperazinyl)-2-propen-1-one]	0.370 µM	6.25	< 4.48	–	–
C=CC(=O)N1CCN(c2nnc(Oc3ccccc3)c3cc(-c4c(O)cccc4F)c(Cl)cc23)CC1 [Example 16, 1-(4-(7-Chloro-6-(2-fluoro-6-hydroxyphenyl)-4-phenoxy-1-phthalazinyl)-1-piperazinyl)-2-propen-1-one]	2.93 µM	5.06	4.48	–	–
C=CC(=O)N1CCN(c2snc3c(F)c(-c4cc(O)cc5ccccc45)c(Cl)cc23)C(CO)C1 (stereo in doubt) [Example 1-7, 1-((3R)-4-(5-chloro-7-fluoro-6-(3-hydroxy-1-naphthalenyl)-2,1-benzothiazol-3-yl)-3-(hydroxymethyl)-1-piperazinyl)-2-propen-1-one]	0.209 µM	5.73	< 4.00	–	–
C=CC(=O)N1CCN(c2snc3cc(-c4cc(O)cc5ccccc45)c(Cl)cc23)CC1 [Example 1-3]	–	5.42	< 4.00	–	–
C=CC(=O)N1CCN(c2nc(=O)n(-c3ccncc3C3CC3)c3cc(-c4c(O)cccc4F)c(Cl)cc23)[C@@H](C)C1 (single isomer, unassigned) [Example 9-7-1]	–	–	–	7.64	4.83
C=CC(=O)N1CCN(c2nc(=O)n(-c3ccncc3C3CC3)c3cc(-c4c(O)cccc4F)c(Cl)cc23)[C@@H](C)C1 (single isomer, unassigned) [Example 9-7-2]	–	–	–	6.63	4.21
C=CC(=O)N1CCN(c2snc3c(F)c(-c4cc(O)ccc4F)c(Cl)cc23)CC1 [Example 1-28, 1-(4-(5-chloro-7-fluoro-6-(2-fluoro-5-hydroxyphenyl)benzo[c]isothiazol-3-yl)piperazin-1-yl)prop-2-en-1-one]	2.20 µM	–	< 4.00	–	–
C=CC(=O)N[C@@H]1CCN(c2snc3c(F)c(-c4cc(O)cc5ccccc45)c(Cl)cc23)C1 [Example 1-22, N-((3R)-1-(5-chloro-7-fluoro-6-(3-hydroxy-1-naphthalenyl)-2,1-benzothiazol-3-yl)-3-pyrrolidinyl)-2-propenamide]	>250 µM	–	–	–	–
